“Also recorded” adds a separate entry of the source. Non-standard residues stand in square brackets, D forms with d. Residues, ends and D or L forms follow the SMILES beside them. *: point of attachment. Biotin = O=C1N[C@H]2[C@H](CS[C@H]2CCCCC(=O)*)N1
How the values were obtained:
[1] = system: retinal ganglion cells (RGCs); experiment: Optic nerve crush (ONC), retinal ganglion cell survival; format: in vivo, C57BL/6 mice; details: for Average density of retinal ganglion cells: 3 mg/kg IP daily 14 days
Description: Quantification of Retinal Ganglion Cell Survival: To test whether the protective effects of biotin-HDAP2 in serum-starved cultured cells extended to neurons in vivo, the survival of RGCs following optic nerve crush (ONC) in the presence and absence of the peptide was studied. To control for density differences of RGCs across the retina, values were standardized by comparing ratios of RBPMS-labeled RGCs with the densities of starburst amacrine cells labeled by choline acetyltransferase (ChAT). Starburst amacrine cells, like other displaced amacrine cells, are unaffected by ONC in the short-term. In control tissue, displaced starburst amacrine cells accounted for about […] of cells in the ganglion cell layer and ratios of RBPMS labeled cells to ChAT neurons was about 4 to 1 in central retina and 3 to 1 at other eccentricities (FIG. 11B).
Optic Nerve Crush Procedure: Adult mice (2-6 mo.) were anesthetized with a cocktail of ketamine (85 mg/kg) and xylazine (20 mg/kg) (IP), the corneas were numbed with a drop of 0.5% proparacaine hydrochloride ophthalmic solution (Falcon Pharmaceuticals), and the animals were positioned under a Nikon dissecting microscope, dorsolaterally either on the left or right sides. The dorsomedial conjunctiva was cut with microdissection spring scissors, the […] muscles were separated, and the eyeball was slightly retracted to expose the optic nerve. Fine, self-closing forceps (Roboz, RS-5027) were used to clamp the optic nerve 1-2 mm behind the globe, for approximately 3 seconds without applying additional tension. The eye was repositioned within the orbit, the conjunctiva reflected over the extraocular eye muscles and the incision covered with ophthalmic polymyxin B-neomycin-bacitracin ointment (3.5 mg/gm, Bausch and Lomb). The optic nerves from the contralateral eye were untouched and used as untreated controls. Following the crush procedure, mice were given a subcutaneous injection of extended-release buprenorphine (0.05 mg/kg, Ethiqua XR) for analgesia and placed on a heating pad until awake and grooming, at which point they were returned to their home cages. Half the animals were given biotin-HDAP2 immediately following the procedure and then daily thereafter (3 mg/kg, IP) for 14 days.
Immunohistochemistry: Fixed retinas were labeled with cell markers using conventional immunohistochemical protocols to identify cells and structures associated with biotin-HDAP2, and to identify retinal ganglion cells and starburst amacrine cells to assess cell survival following optic nerve crush. Retinas and sections were blocked and permeabilized with 4% normal donkey serum in 0.1M Tris or phosphate buffers with 0.5% Triton-X for 1 hour and then incubated overnight (for sections) or for 3 days (for wholemounts) at 4° C. in selected primary antibodies, and 2% normal donkey serum in the same buffer. The tissue was rinsed 3×10 minutes with buffer and then incubated with secondary antibodies for one hour at room temperature (sections) or overnight at 4° C. for wholemounts. Antibodies and markers used were rabbit anti-RBPMS (1:200; Invitrogen, PA5-31231) to label all retinal ganglion cells; goat anti-choline acetyltransferase (ChAT 1:100; EMD Millipore, AB144P) to label starburst amacrine cells; rabbit anti-glutamine synthetase (1:200; Invitrogen, PA1-46165) to label Müller cells; and rabbit anti-cox4 (1:200; Invitrogen, PA5-29992) to identify mitochondria. Secondary antibodies were raised in donkey and conjugated with either Alexa Fluor 488, 594 or 647 (1:500, Life Sciences). To identify the distribution of cell nuclei, and to delineate retinal layers, tissue was labeled with the nuclear stain ToPro3 (1:1000; Invitrogen) for 15 minutes. After staining, sections and retinas were rinsed in buffer and coverslipped in Vectashield mounting media (Vector Labs) to prevent photobleaching. […]

MDBK cells = experiment: NAO binding to mitochondria in MDBK cells; format: cell-based, bovine; details: NAO 1 μM, biotin-HDAP2 10 μM
ARPE-19 cells = experiment: Mitochondrial potential in the presence of CCCP (TMRM); format: cell-based; details: 10 μM CCCP, TMRM
Description: Effects of peptides on mitochondrial potential in the presence of Carbonyl cyanide m-chlorophenylhydrazone (CCCP): ARPE-19 cells (ATTC-CRL-2302) (5×10^4 cells) were seeded in 35 mm glass dishes in DMEM/F12 medium with 10% FBS for 24 hr. On the day of the experiment, cells were cultured in DMEM/F12 in the presence of different concentrations of biotin-HDAP2 for 60 min (FIG. 17B). Then, cells were incubated with 10 μM CCCP in the presence of 5 nM TMRM, 100 nM Mito View Green, and 10 μg/ml Hoechst 33342 for 15 min at 37° C. Fluorescent images were immediately obtained with a Nikon Eclipse 50i fluorescence microscope (60× objective) using FITC (Mito View Green), Texas Red (TMRM), and DAPI (Hoechst) filters. Images were collected from three independent experiments, using 4-6 random fields for each treatment group, and imaged and analyzed as described for NR.

[2] = system: antimycin-induced scratching; experiment: Topical antimycin-induced scratching; format: in vivo, C57BL/6J mice; details: 100 μM topical with 200 μM antimycin, 60 min
Description: However, antimycin-induced scratching in mice was […] by biotin-free HDAP2. Dermal administration of antimycin, a mitochondrial Complex III irreversible inhibitor, is known to induce ROS formation and oxidative stress in C fibers of sensory neurons, resulting in severe scratching in mice. Biotin-HDAP2 and biotin-free HDAP2 were tested to see if either can inhibit topical antimycin-induced itching in 12 months old C57BL/6J mice. […] Specifically, 200 μM of topical antimycin in methanol induced itching, which was monitored for 60 min. […] Error bars represent SEM (n=3) **P<0.001. Topical administration of 100 μM of biotin-free HDAP2 with antimycin increased scratching by 2.5 fold. Error bars represent SEM (n=3) ***P<0.0001.

HK-2 cells = experiment: PCNA expression in serum-starved cells; format: cell-based; details: serum starved for 3 days
Description: FIG. 18B are representative images of HK-2 cells serum starved for 3 days in the presence or absence of biotin-HDAP2 (SEQ ID NO: 1), HDAP4 (SEQ ID NO: 13), and biotin-HDAP6 (SEQ ID NO: 10) and then tested for the expression of Proliferating Cell Nuclear Antigen (PCNA) (bottom row), a positive marker for cell proliferation. The Hoechst 33342 probe (Hc) was used to label the nucleus to determine cellular localization (top row).

[3] = system: retinal ganglion cells (RGCs); experiment: Retinal ganglion cell survival in retinal explants; details: Brn3a labeling
Description: FIG. 8 illustrates retinal explants labeled with Brn3a (green) to label retinal ganglion cells (RGCs), ToPro3 to label all cell nuclei (red) and ChAT to label displaced amacrine cells (blue).

SMILES: N=C(N)NCCC[C@@H](NC(=O)[C@H](Cc1ccccc1)NC(=O)[C@H](Cc1ccccc1)NC(=O)[C@@H](CCCNC(=N)N)NC(=O)CCCC[C@@H]1SC[C@@H]2NC(=O)N[C@@H]21)C(N)=O [biotin-HDAP2, Biotin-dArg-Phe-Phe-dArg-NH2] (Biotin-[dR]FF[dR]-NH2)
- protection of retinal ganglion cells following optic nerve crush ([1]; 3 mg/kg): protected retinal ganglion cells following optic nerve crush; also recorded: significantly greater survival of retinal ganglion cells
- Average density of retinal ganglion cells ([1]; Central, ONC): 446.1 ± 42.92 cells/mm2
- Average density of retinal ganglion cells ([1]; Midperipheral, ONC): 694.5 ± 52.61 cells/mm2
- expression of RBPMS compared to untreated ([1]; ONC): doubled
- ratio of RGCs to ChAT cells (to 1) ([1]; ONC, treated): 0.70
- more RBPMS labeled cells than untreated animals ([1]; ONC, treated daily): 40%
- expression of RBPMS (mean pixel intensity) ([1]; ONC, treated, n=23): 9.8±0.78 arbitrary fluorescence units
- survival of retinal ganglion cells greater compared to untreated controls ([1]; ONC, intraperitoneal or subcutaneous administration): 50%
- Average density of retinal ganglion cells ([1]; Peripheral, ONC): 565.4 ± 53.61 cells/mm2
- percent increase in RBPMS labeled cells vs untreated ONC ([1]; central retina): 18%
- percent increase in RBPMS labeled cells vs untreated ONC ([1]; midperipheral retina): 38%
- percent increase in RBPMS labeled cells vs untreated ONC ([1]; periphery): 50%
- NAO binding to mitochondria (MDBK cells): inhibited NAO binding to mitochondria in MDBK cells
- effect on CCCP-mediated mitochondrial depolarization (ARPE-19 cells): prevented CCCP-mediated decreases in the mitochondrial membrane potential in a dose-dependent manner
- effect on CCCP-mediated mitochondrial depolarization (ARPE-19 cells; listed as Biotin-HDAP2): prevented mitochondrial depolarization in a dose-dependent manner
- effect on antimycin-induced scratching [2]: inhibited scratching
- expression of PCNA and cell proliferation (HK-2 cells): increase proliferation expression of PCNA and cell proliferation during serum starvation
- survival of retinal ganglion cells in retinal explants [3]: promoted survival of retinal ganglion cells in retinal explants

Reference: patent publication US20250276996A1, “CATIONICALLY-ENFRAMED HIGH DENSITY AROMATIC PEPTIDES” (Research Foundation of the City University of New York, priority 2022, published 2025)
